Source: patent US9273285B1, “Shorter colony-forming cell assay” (STEMCELL TECHNOLOGIES INC., priority 2008, dated 2016)

Test system: Human CB mononuclear cells
Test: Hematopoietic colony-forming cell (CFC) assay in methylcellulose-based MethoCult media
Parameters: key to Size, Morphology ranking: Ranking on the basis of colony size and morphology: 1 is best; 4 is worst
Settings: for Colony numbers as percentage of colony numbers in medium without extra cytokines, Average: average of experiments
Protocol: Frozen ficolled cord blood mononuclear cells were thawed, nucleated cells were counted by microscopy using a hemacytometer after dilution in 3% acetic acid to lyse mature erythrocytes. The cells were diluted with Iscove's MDM to 10-fold the desired cell concentration. 0.4 mL of the cell suspensions were added into an aliquot of test MethoCult® medium (4 mL) and mixed by vortexing. 1.1 mL of each cell/medium mixture was dispensed into triplicate 35 mm culture dishes using 3 mL syringes with blunt end needles, with 1.1 mL of medium per dish. All cultures were incubated for 4, 7, 10 or the standard 14 days at 37° C., 5% CO2, 100% humidity. Colonies were enumerated and classified by bright-field microscopy into the following categories based on size and morphology: CFU-E, BFU-E, CFU-GM, CFU-GEMM (StemCell Technologies, Colony Atlas). […]
Methocult® H4435 medium, which contains the 6 cytokines IL-3, IL-6, SCF, GM-CSF, G-CSF and EPO, was supplemented with Zinc Sulphate at final concentrations 2, 10 and 20 μM and 4 different CB samples were cultured for 7 and 14 days as described in Example 1. […] In one experiment, CFU-GM colonies were larger in the presence of zinc, whereas BFU-E colony size was unchanged.
To examine if adding extra cytokines can further increase colony growth, culture medium as in Example 5 was supplemented with FL, TPO or both. Cultures were set up using Cord Blood cells and colonies were counted after 7 and 14 days. […] In three of the four experiments colony size and morphology after 14 days were very similar whether or not TPO and/or FL were present in the medium. In one experiment (Exp 4 in Table 2) colonies were slightly larger in cultures without TPO and FL compared to cultures with TPO and FL. […]

[1] = Exp. 1, 7 days, added to MethoCult medium with IL-3, IL-6, G-CSF, GM-CSF, SCF, EPO, cord blood

## O=S(=O)([O-])[O-].[Zn+2] [Zinc Sulphate]
10 or 20 μM in Methocult H4435, 4 CB samples (FIG. 4)
  total colony numbers on day 7 and 14 relative to media containing no Zinc, or 2 μM of Zinc: increased
In Methocult H4435, 3 of the 4 experiments
  Effect on colony size after 14 days of culture: no effects of zinc on colony size was observed
In Methocult H4435, particularly at 10 and 20 uM, three of 4 experiments
  Colony size and morphology on day 7 compared to zinc-free medium: the colonies were larger, and more evenly spread out

## Thrombopoietin [TPO]
Exp. 1, 7 days
  Colony numbers as percentage of colony numbers in medium without extra cytokines: 78%
  Size, Morphology ranking: 2
[1]
  Colony numbers per 10^5 cells plated: 210 per 10^5 cells plated
Exp. 1, 14 days
  Colony numbers as percentage of colony numbers in medium without extra cytokines: 93%
  Colony numbers per 10^5 cells plated: 287 per 10^5 cells plated
  Size, Morphology ranking: 1
Exp. 2, 7 days
  Colony numbers as percentage of colony numbers in medium without extra cytokines: 102%
  Colony numbers per 10^5 cells plated: 393 per 10^5 cells plated
  Size, Morphology ranking: 1
Exp. 2, 14 days
  Colony numbers as percentage of colony numbers in medium without extra cytokines: 102%
  Colony numbers per 10^5 cells plated: 480 per 10^5 cells plated
  Size, Morphology ranking: 1
Exp. 3, 7 days
  Colony numbers as percentage of colony numbers in medium without extra cytokines: 107%
  Colony numbers per 10^5 cells plated: 317 per 10^5 cells plated
  Size, Morphology ranking: 2
Exp. 3, 14 days
  Colony numbers as percentage of colony numbers in medium without extra cytokines: 107%
  Colony numbers per 10^5 cells plated: 360 per 10^5 cells plated
  Size, Morphology ranking: 1
7 days
  Colony numbers as percentage of colony numbers in medium without extra cytokines, Average: 95%
14 days
  Colony numbers as percentage of colony numbers in medium without extra cytokines, Average: 101%

B1: FLT-3 Ligand (protein, UniProt P49771 27-235, looked up)
Fms-related tyrosine kinase 3 …: TQDCSFQHSPISSDFAVKIRELSDYLLQDYPVTVASNLQDEELCGGLWRLVLAQRWMERLKTVAGSKMQGLLERVNTEIHFVTKCAFQPPPSCLRFVQTNISRLLQETSEQLVALKPWITRQNFSRCLELQCQPDSSTLPPPWSPRPLEATAPTAPQPPLLLLLLLPVGLLLLAAAWCLHWQRTRRRTPRPGEQVPPVPSPQDLLLVEH
notes: cytokine added to the culture medium
Exp. 1, 7 days
  Colony numbers as percentage of colony numbers in medium without extra cytokines: 99%
  Size, Morphology ranking: 2
[1]
  Colony numbers per 10^5 cells plated: 267 per 10^5 cells plated
Exp. 1, 14 days
  Colony numbers as percentage of colony numbers in medium without extra cytokines: 110%
  Colony numbers per 10^5 cells plated: 337 per 10^5 cells plated
  Size, Morphology ranking: 1
Exp. 2, 7 days
  Colony numbers as percentage of colony numbers in medium without extra cytokines: 107%
  Colony numbers per 10^5 cells plated: 413 per 10^5 cells plated
  Size, Morphology ranking: 2
Exp. 2, 14 days
  Colony numbers as percentage of colony numbers in medium without extra cytokines: 99%
  Colony numbers per 10^5 cells plated: 463 per 10^5 cells plated
  Size, Morphology ranking: 1
Exp. 3, 7 days
  Colony numbers as percentage of colony numbers in medium without extra cytokines: 99%
  Colony numbers per 10^5 cells plated: 293 per 10^5 cells plated
  Size, Morphology ranking: 3
Exp. 3, 14 days
  Colony numbers as percentage of colony numbers in medium without extra cytokines: 94%
  Colony numbers per 10^5 cells plated: 317 per 10^5 cells plated
  Size, Morphology ranking: 1
7 days
  Colony numbers as percentage of colony numbers in medium without extra cytokines, Average: 101%
14 days
  Colony numbers as percentage of colony numbers in medium without extra cytokines, Average: 101%
